# Measured values reported in DBAASP.
# “And” between values parts separate entries of the source, which are not always exact repeats. Equal entries are not always repeated.
# Key:
# Test in all cases: ≥ marks a high value that may be exact or a test limit, other limits are often not marked, values filed in µg/mL are converted to µM
# [1] = system: Bacillus subtilis AB91021
# [2] = system: Bacillus thuringiensis AB92037
# Escherichia coli AB94012 = system: Escherichia coli AB94012
# [3] = system: Escherichia coli ATCC 25922
# [4] = system: Micrococcus luteus AB93113
# [5] = system: Pseudomonas aeruginosa ATCC 9027
# [6] = system: Staphylococcus aureus AB208193
# [7] = system: Staphylococcus aureus AB94004
# [8] = system: Staphylococcus aureus ATCC 25923
# [9] = system: Staphylococcus aureus ATCC 6538
# [10] = system: Staphylococcus aureus P1374
# [11] = system: Staphylococcus aureus P1381
# [12] = system: Staphylococcus aureus P1389
# [13] = system: Staphylococcus epidermidis AB208187
# [14] = system: Staphylococcus epidermidis AB208188
# [15] = system: Candida albicans ATCC 36232
# [16] = system: Micrococcus luteus ATCC 9341
# [17] = system: Candida albicans ATCC 3623
# [18] = system: Escherichia coli ATCC 2592
# [19] = system: Alternaria brassicicola MUCL 20297
# Aspergillus fumigatus = system: Aspergillus fumigatus
# [20] = system: Fusarium culmorum MUCL 30162
# [21] = system: Fusarium haematococcum 160.2.2
# [22] = system: Fusarium oxysporum MUCL 909
# [23] = system: Neurospora crassa CBS 327-54
# [24] = system: Trichophyton mentagrophytes
# Aerococcus viridans = system: Aerococcus viridans
# Alcaligenes faecalis = system: Alcaligenes faecalis
# Bacillus megaterium = system: Bacillus megaterium
# Bacillus subtilis QB935 = system: Bacillus subtilis QB935
# Bacillus thuringiensis = system: Bacillus thuringiensis
# Burkholderia cepacia = system: Burkholderia cepacia
# [25] = system: Enterobacter cloacae beta-12
# Enterococcus faecalis = system: Enterococcus faecalis
# Escherichia coli 1106 = system: Escherichia coli 1106
# Escherichia coli D22 = system: Escherichia coli D22
# Escherichia coli D31 = system: Escherichia coli D31
# Escherichia coli K-12 = system: Escherichia coli K-12
# Klebsiella pneumoniae = system: Klebsiella pneumoniae
# Micrococcus luteus = system: Micrococcus luteus
# [26] = system: Pectobacterium carotovorum subsp. carotovorum
# [27] = system: Pseudomonas aeruginosa ATCC 82118
# Salmonella typhimurium = system: Salmonella typhimurium
# Serratia marcescens Db11 = system: Serratia marcescens Db11
# [28] = system: Staphylococcus aureus USA 300
# Staphylococcus aureus = system: Staphylococcus aureus
# [29] = system: Xanthomonas campestris pv. oryzae
smiles,measurement,setting,value
CC[C@H](C)[C@H](NC(=O)[C@H](CCCCN)NC(=O)[C@@H](NC(=O)[C@H](C)NC(=O)[C@H](CC(C)C)NC(=O)[C@H](CCCCN)NC(=O)[C@H](Cc1ccccc1)NC(=O)[C@H](CC(C)C)NC(=O)[C@H](Cc1cnc[nH]1)NC(=O)CNC(=O)[C@H](Cc1ccccc1)NC(=O)[C@@H](N)Cc1ccccc1)[C@@H](C)O)C(=O)N[C@H](C(=O)N1CCC[C@H]1C(=O)N[C@@H](CO)C(=O)N[C@@H](CC(C)C)C(=O)N[C@@H](Cc1ccccc1)C(=O)N[C@@H](CCC(N)=O)C(=O)O)[C@@H](C)CC [FFGHLFKLATKIIPSLFQ],MIC,[1],3 µM
same,MIC,[2],3 µM
same,MIC,Escherichia coli AB94012,23.7 µM
same,MIC,[3],11.9 µM
same,MIC,[4],≥ 47.5 µM
same,MIC,[5],11.9 µM
same,MIC,[6],3 µM
same,MIC,[7],1.5 µM
same,MIC,[8],3 µM
same,MIC,[9],1.5 µM
same,MIC,[10],3 µM
same,MIC,[11],1.5 µM
same,MIC,[12],3 µM
same,MIC,[13],3 µM
same,MIC,[14],1.5 µM
CC(C)[C@H](NC(=O)[C@H](CCCCN)NC(=O)[C@H](Cc1ccccc1)NC(=O)[C@@H](NC(=O)[C@@H](NC(=O)[C@H](CCCCN)NC(=O)[C@H](CCCCN)NC(=O)[C@@H](N)CCCCN)C(C)C)C(C)C)C(=O)N[C@@H](CCCCN)C(=O)N[C@@H](Cc1ccccc1)C(=O)N[C@@H](CCCCN)C(N)=O [KKKVVFKVKFK],MIC,[15],9.07 µM and 3.21 µM and 4.53 µM
same,MIC,[16],2.27 µM
same,MIC,[9],2.27 µM
CC(C)C[C@H](NC(=O)[C@H](CC(C)C)NC(=O)[C@H](CCCCN)NC(=O)[C@H](CC(C)C)NC(=O)[C@H](CC(C)C)NC(=O)[C@H](CC(C)C)NC(=O)[C@H](CCCCN)NC(=O)[C@H](CC(C)C)NC(=O)[C@H](CC(C)C)NC(=O)[C@H](CC(C)C)NC(=O)[C@@H](N)CCCCN)C(=O)N[C@@H](CCCCN)C(N)=O [KLLLKLLLKLLK],MIC,[17],4.39 µM
same,MIC,[18],11.6 µM
same,MIC,[16],4.39 µM
same,MIC,[5],8.7 µM
same,MIC,[9],11.6 µM
CC[C@H](C)[C@H](NC(=O)[C@H](CO)NC(=O)[C@H](CC(C)C)NC(=O)[C@@H](NC(=O)[C@@H](N)CCCN=C(N)N)[C@@H](C)CC)C(=O)N[C@@H](CC(C)C)C(=O)N[C@@H](CCCN=C(N)N)C(=O)N[C@@H](Cc1cnc[nH]1)C(=O)N[C@@H](CCC(N)=O)C(=O)N[C@@H](CC(N)=O)C(=O)N[C@@H](CC(C)C)C(=O)N[C@@H](CC(C)C)C(=O)N[C@@H](CCCCN)C(=O)N[C@@H](CCC(=O)O)C(=O)N[C@@H](CC(C)C)C(=O)N[C@@H](CCC(N)=O)C(=O)N[C@@H](CC(=O)O)C(=O)N[C@@H](CC(C)C)C(=O)N[C@@H](C)C(=O)N[C@@H](CC(C)C)C(=O)N[C@@H](CCC(N)=O)C(=O)NCC(=O)N[C@@H](C)C(=O)N[C@@H](CCCCN)C(=O)O [RILSILRHQNLLKELQDLALQGAK],MIC,[19],10 µM
same,MIC,Aspergillus fumigatus,30 µM
same,MIC,[20],10 µM
same,MIC,[21],7 µM
same,MIC,[22],30 µM
same,MIC,[23],5 µM
same,MIC,[24],30 µM
CSCC[C@H](NC(=O)[C@H](CC(N)=O)NC(=O)[C@@H]1CCCN1C(=O)[C@@H]1CCCN1C(=O)[C@H](CCCNC(=N)N)NC(=O)[C@@H]1CCCN1C(=O)[C@H](CCCNC(=N)N)NC(=O)[C@@H]1CCCN1C(=O)[C@H](CCCNC(=N)N)NC(=O)[C@H](Cc1ccc(O)cc1)NC(=O)[C@H](CC(=O)O)NC(=O)[C@@H]1CCCN1C(=O)[C@H](CCCCN)NC(=O)[C@H](CC(=O)O)NC(=O)[C@@H](N)C(C)C)C(=O)O [VDKPDYRPRPRPPNM],MIC,Aerococcus viridans,≥ 200 µM
same,MIC,Alcaligenes faecalis,≥ 70.7 µM
same,MIC,Bacillus megaterium,≥ 200 µM
same,MIC,Bacillus subtilis QB935,≥ 200 µM
same,MIC,Bacillus thuringiensis,≥ 200 µM
same,MIC,Burkholderia cepacia,≥ 100 µM
same,MIC,[25],≥ 141 µM
same,MIC,Enterococcus faecalis,≥ 200 µM
same,MIC,Escherichia coli 1106,≥ 141 µM
same,MIC,Escherichia coli D22,≥ 70.7 µM
same,MIC,Escherichia coli D31,≥ 141 µM
same,MIC,Escherichia coli K-12,≥ 100 µM
same,MIC,Klebsiella pneumoniae,> 200 µM
same,MIC,Micrococcus luteus,≥ 200 µM
same,MIC,[26],≥ 200 µM
same,MIC,[27],≥ 200 µM
same,MIC,Salmonella typhimurium,≥ 70.7 µM
same,MIC,Serratia marcescens Db11,≥ 200 µM
same,MIC,[28],≥ 100 µM
same,MIC,Staphylococcus aureus,> 200 µM
same,MIC,[29],≥ 141 µM
